# Measurements as given in patent US9127016B2, “Small molecule inhibitors of Dusp6 and uses therefor” (University of Pittsburgh—Of the Commonwealth System of …, priority 2009, dated 2015).
# Legend:
# ERK2-stimulated Dusp6 = biological target: T1, ERK2-stimulated Dusp6 (Homo sapiens, UniProt Q16828); test: ERK2-induced activation of Dusp6, OMFP dephosphorylation; format: biochemical; conditions: BCI 100 μM
# T1 construct: His; made in house
# Procedure: For OMFP based ERK2 induced activation of Dusp6, recombinant His-tagged Dusp6 was expressed from a bacterial expression vector and 250 ng were incubated with the indicated concentrations of NSC95397 or BCI. OMFP was added at its apparent Km (100 μM) (Vogt, A. et al. J Biol Chem 280, 19078-86 (2005)). The final reaction volume was 15 μl. After 1 h at RT, OMF fluorescence was measured on an M5 multimode reader (Molecular Devices) at excitation/emission wavelengths of 485/525 nm. To assay activated Dusp6, 210 ng or 2.1 μg of recombinant ERK2 (Cell signaling) were added to Dusp6(210 ng)/BCI(100 μM) mixtures to measure activation at 1:1 and 1:10 ratio of substrate to enzyme. OMFP was immediately added and fluorescence (ex485/em525 nm) was read every 10 min for 130 min. Fold activation was calculated at 60 mins in each experiment.
# FGF target genes = test: Whole mount in situ hybridization of FGF target genes in treated embryos; format: in vivo, zebrafish
# Procedure: In situ hybridization experiments were carried out as described previously (Kudoh, T. et al. Genome Res 11, 1979-87 (2001)). The probes eng3, krox20, sef, dusp6, gata4, nkx2.5, cmlc2, vmhc, scl, etsrp and hand2 were generated with a RNA labeling kit (Roche) (Tsang, M. et al. Development 131, 2769-79 (2004); Chen, J. N. et al. Development 122, 3809-16 (1996); Ekker, M., et al. Development 116, 1001-10 (1992); Liao, E. C. et al. Genes Dev 12, 621-6 (1998); Oxtoby, E. et al. Nucleic Acids Res 21, 1087-95 (1993); Pham, V. N. et al. Dev Biol 303, 772-83 (2007); Tsang, M., et al. Nat Cell Biol 4, 165-9 (2002); Yelon, D., et al. Dev Biol 214, 23-37 (1999); and Yelon, D. et al. Development 127, 2573-82 (2000)). The double fluorescent in situ hybridization protocol was described by Schoenbeck et al. (Dev Cell 13, 254-67 (2007)). Fluorescent in situ hybridizations were visualized by confocal microscopy. Single optical sections and z-series of flat-mounted stained embryos were collected with a confocal laser scan head (SP5, Leica Microsystems, Inc.) mounted on an inverted compound microscope (DM16000, Leica Microsystems, Inc.). Images were scanned and compiled with NIH ImageJ software (rsb.info.nih.gov/ij/).
# We previously described the generation of a transgenic zebrafish line, (Tg(Dusp6:d2EGFP)pt6) that expresses destabilized green fluorescent protein (d2EGFP) under the control of FGF signaling (Molina, G. A., et al. BMC Dev Biol 7, 62 (2007)). […] Five transgenic embryos at 24 hours post fertilization (hpf) were arrayed into each well of a 96-well plate containing test compounds at 10 μM. d2EGFP intensity in treated embryos was visually analyzed and compared to vehicle control (0.5% DMSO) after 6-8 hours. […] To confirm that BCI hyperactivated FGF signaling, we treated embryos prior to gastrulation (5 hpf), and we analyzed by whole mount in situ hybridization, the expression of ntl (zebrafish brachyury), a known FGF target gene (Latinkic, B. V. et al. Genes Dev 11, 3265-76 (1997)). […] We next determined the BCI structural features required to enhance FGF signaling. […]
# Cdc25B = biological target: T2, Cdc25B (Homo sapiens, UniProt P30305); test: OMFP phosphatase assay, Cdc25B; format: biochemical; conditions: n=3, OMFP substrate, 15.2 nM-300 μM; read-out: mean in vitro values, Cdc25B
# T2 sequence (P30305 1-580): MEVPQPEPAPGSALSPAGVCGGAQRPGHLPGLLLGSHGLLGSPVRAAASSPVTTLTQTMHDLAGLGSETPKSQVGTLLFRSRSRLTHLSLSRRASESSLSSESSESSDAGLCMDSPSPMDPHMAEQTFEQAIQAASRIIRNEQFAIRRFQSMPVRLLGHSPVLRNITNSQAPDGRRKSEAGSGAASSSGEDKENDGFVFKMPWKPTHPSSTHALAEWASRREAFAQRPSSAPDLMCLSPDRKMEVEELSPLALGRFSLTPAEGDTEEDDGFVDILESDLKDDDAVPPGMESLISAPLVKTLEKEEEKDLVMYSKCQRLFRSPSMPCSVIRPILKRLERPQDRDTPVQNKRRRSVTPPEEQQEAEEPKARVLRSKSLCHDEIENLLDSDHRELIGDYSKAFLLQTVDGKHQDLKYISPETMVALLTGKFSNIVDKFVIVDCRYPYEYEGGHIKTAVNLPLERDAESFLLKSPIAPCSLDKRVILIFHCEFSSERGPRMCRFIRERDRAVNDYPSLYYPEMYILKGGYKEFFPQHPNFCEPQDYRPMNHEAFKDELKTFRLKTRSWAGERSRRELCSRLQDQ
# Procedure: (§1) Enzyme activities in the presence or absence of BCI were measured using the artificial substrate […] at concentrations equal to the Km of each enzyme (Cdc25B, PTP1B & Dusp3/VHR) and at optimal pH for individual enzyme activity in a 96-well microtiter plate assay based on previously described methods by Lazo et al. (J Med Chem 44, 4042-9 (2001) and Lazo, J. S. et al. Bioorg Med Chem 14, 5643-50 (2006)). Briefly, the standard assay conditions contained 0.02 mg/ml OMFP in assay buffer (30 mM Tris-HCl (pH8.0), 75 mM NaCl, 1 mM EDTA, 0.33% BSA and 1 mM DTT). Fluorescence emission was measured after a sixty-minute incubation period at ambient temperature using a multiwell plate reader (SpectraMax m5, […]; excitation 485 nm, emission 525 nm). Sodium orthovanadate (100 μM) was used as a positive control for full phosphatase inhibition. IC50 concentrations were determined from three experiments using 10 concentrations of BCI ranging from 300 μM to 15.2 nM and GraphPad Prism 5.0 software.
# Dusp3/VHR = Dusp3/VHR (Homo sapiens, UniProt P51452); test: OMFP phosphatase assay, Dusp3/VHR; format: biochemical; conditions: n=3, OMFP substrate, 15.2 nM-300 μM; read-out: mean in vitro values, VHR
# Procedure: as §1
# T1 sequence (Q16828 whole entry): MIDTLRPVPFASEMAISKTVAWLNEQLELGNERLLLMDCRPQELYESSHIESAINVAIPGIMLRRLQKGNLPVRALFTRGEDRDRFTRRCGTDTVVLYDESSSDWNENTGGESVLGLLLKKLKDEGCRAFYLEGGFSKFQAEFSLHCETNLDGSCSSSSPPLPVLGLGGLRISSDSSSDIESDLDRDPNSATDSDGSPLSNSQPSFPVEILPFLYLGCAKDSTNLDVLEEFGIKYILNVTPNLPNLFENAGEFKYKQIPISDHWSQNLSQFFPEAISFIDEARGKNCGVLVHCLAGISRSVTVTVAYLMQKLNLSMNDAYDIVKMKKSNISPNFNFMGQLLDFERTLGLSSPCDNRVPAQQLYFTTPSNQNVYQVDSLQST
# T1 sequence (P28482 whole entry partner): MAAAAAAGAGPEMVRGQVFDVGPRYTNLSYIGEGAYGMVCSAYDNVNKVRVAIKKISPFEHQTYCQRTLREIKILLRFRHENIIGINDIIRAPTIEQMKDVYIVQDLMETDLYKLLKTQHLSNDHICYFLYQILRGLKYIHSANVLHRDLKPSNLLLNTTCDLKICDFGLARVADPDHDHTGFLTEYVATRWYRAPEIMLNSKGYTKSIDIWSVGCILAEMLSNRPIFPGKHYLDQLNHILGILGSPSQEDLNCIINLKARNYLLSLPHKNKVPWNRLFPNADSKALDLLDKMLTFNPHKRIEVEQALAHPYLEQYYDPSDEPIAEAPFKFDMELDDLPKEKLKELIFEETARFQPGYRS
# Sequence of Dusp3/VHR (P51452 whole entry): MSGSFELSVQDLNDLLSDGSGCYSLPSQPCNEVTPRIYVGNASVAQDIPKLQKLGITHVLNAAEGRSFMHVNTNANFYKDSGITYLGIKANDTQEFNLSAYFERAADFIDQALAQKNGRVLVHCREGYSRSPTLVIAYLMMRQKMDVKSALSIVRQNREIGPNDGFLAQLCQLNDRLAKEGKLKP
compound,measurement,setting,value
"O=C1/C(=C/c2ccccc2)C(NC2CCCCC2)c2ccccc21 (stereo not shown) [Compound 3, (E)-2-benzylidene-3-(cyclohexylamino)-2,3-dihydro-1H-inden-1-one]",inhibition of ERK2-stimulated Dusp6 dephosphorylation of OMFP,ERK2-stimulated Dusp6; ERK2 three-fold stimulation (1:1),57%
same,inhibition of ERK2-stimulated Dusp6 dephosphorylation of OMFP,"ERK2-stimulated Dusp6; ratio of ERK2 to Dusp6 10:1, 7-fold enhancement",30%
same,expression of ntl,"FGF target genes; treated prior to gastrulation (5 hpf), 6-somite stage",greatly expanded
same,expression of engrailed3 (eng3) and krox20,FGF target genes; treatment during somitogenesis,increased expression
same,expression of dusp6,FGF target genes; treatment from the 1- to 10-somite stage,marked increase
same,IC50,Cdc25B,> 300 µM
same,IC50,Dusp3/VHR,> 300 µM
